Experimental data from patent US20110183978A1, “Phenylpyri(mi)dinylazoles” (Bayer CropScience AG, priority 2009, published 2011).
Where two headings read alike, the source gives them in different places.

Key:
[1] = tested on: Mycosphaerella graminicola; experiment: Example G: in vivo test on Mycosphaerella graminicola (wheat leaf blotch disease); details: Zymoseptoria tritici, wheat plants sprayed 24 hours before inoculation, scored after 21 to 28 days, read-out: % Wirkungsgrad
Description: In Vivo Test on Mycosphaerella Graminicola (Wheat Leaf Blotch Disease) An aqueous suspension of the active substance was prepared by homogenization of a mixture of acetone/Tween/dimethyl sulphoxide and subsequent dilution with water to the desired concentration. Wheat plants (variety: Scipion) are sown in cultivation dishes on a peat-pozzolanic earth substrate (50/50) at 12° C. and sprayed at the first-leaf stage (10 cm size) with the aqueous suspension described above. As a control, plants are sprayed with an aqueous solution with no active substance. After 24 hours the plants are inoculated by spraying with an aqueous suspension of Mycosphaerella graminicola spores (500,000 spores per ml). The spores are derived from a 7 day-old culture. […] After 21 to 28 days they are scored in comparison with the control plants.

Botrytis cinerea [2] = experiment: Example B: in vivo test on Botrytis cinerea (grey mould on cucumbers); details: cucumber plants sprayed 24 hours before inoculation, scored after 5-7 days, read-out: % Wirkungsgrad
Description: In Vivo Test on Botrytis Cinerea (Grey Mould on Cucumbers) An aqueous suspension of the active substance was prepared by homogenization of a mixture of acetone/Tween/dimethyl sulphoxide and subsequent dilution with water to the desired concentration. Cucumber plants (variety: Vert petit de Paris) are sown in cultivation dishes on a peat-pozzolanic earth substrate (50/50) at 18-20° C. and sprayed at the cotyledon stage Z11 with the aqueous suspension described above. As a control, plants are sprayed with an aqueous solution with no active substance. […] The spores are derived from a 15 day-old culture which are suspended in the following nutrient solution: • 20 g/l gelatine • 50 g/l D-fructose • 2 g/l NH4NO3 • 1 g/l KH2PO4 The inoculated cucumber plants are kept for 5-7 days in a climatic chamber at […] After 5-7 days they are scored in comparison with the control plants.

Rhizoctonia solani = experiment: Example W: in vivo test on Rhizoctonia solani (sheath blight in rice/protective); details: 96 h, rice, protective, 250 ppm active substance, assessed 4 days after inoculation, read-out: % Activity level
Description: Solvent: 28.5 parts by weight acetone Emulsifier: 1.5 parts by weight alkylaryl polyglycol ethers For the preparation of a suitable active substance preparation, 1 part by weight of active substance is mixed with the stated quantities of solvent and emulsifier and the concentrate is diluted to the desired concentration with water. For the testing for protective activity, young rice plants are sprayed with the active substance preparation at the stated application dosage. One day after the treatment, the plants are inoculated with hyphae of Rhizoctonia solani. […] 4 days after the inoculation, the assessment takes place.

Fusarium proliferatum = experiment: Example I: production of fumonisin FB1 by Fusarium proliferatum (microtitre plates); type: cell-based; details: 120 h
Fusarium graminearum [3] = experiment: microbe, parasite or virus in culture; type: cell-based
Sphaerotheca fuliginea = experiment: Example L: in vivo test on Sphaerotheca fuliginea (powdery mildew on cucumber/protective); details: Podosphaera fuliginea, 168 h, cucumber, protective, assessment 7 days after inoculation, read-out: % Wirkungsgrad
Procedure, shortened: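 Young cucumber plants sprayed at stated dosage with compound in DMF/alkylaryl polyglycol ether emulsifier diluted in water; inoculated with S. fuliginea spores one day later. Kept in greenhouse at 70% relative humidity, 23° C; protective activity assessed 7 days after inoculation.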

Aspergillus parasiticus = experiment: microbe, parasite or virus in culture; type: cell-based; details: 168 h
Alternaria solani = experiment: Example M: in vivo test on Alternaria solani (leaf blotch disease/tomato/protective); details: 168 h, tomato, protective, 500 ppm active substance, assessed 7 days after inoculation, read-out: % Wirkungsgrad (activity level)
Procedure, shortened: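 Protective test: young tomato plants sprayed with active substance (in DMF with alkylaryl polyglycol ether emulsifier, diluted in water) at the stated dosage, then inoculated with Alternaria solani. Disease assessed 7 days after inoculation.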

Botrytis cinerea [4] = experiment: Example P: in vivo test on Botrytis cinerea (gray mould on bean/protective); details: 48 h, bean, protective, 250 ppm active substance, assessed 2 days after inoculation, read-out: % Wirkungsgrad (activity level)
Procedure, shortened: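 Protective test: young bean plants sprayed with the active substance preparation (emulsifier-based concentrate diluted in water) at the stated dosage. Once dry, each leaf received 2 agar pieces bearing Botrytis cinerea. Infection blotch size assessed 2 days after inoculation.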

Fusarium graminearum [5] = experiment: whole plant or invertebrate; type: in vivo; details: in Hordeum vulgare, 120 h, read-out: % Wirkungsgrad (activity level)
Venturia inaequalis = experiment: Example O: in vivo test on Venturia inaequalis (apple scab/protective); details: 240 h, protective, assessment 10 days after inoculation, read-out: % Wirkungsgrad
Procedure, shortened: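 Protective test: active substance mixed with solvent and alkylaryl polyglycol ether emulsifier, diluted with water, and sprayed on young plants at the stated dosage before Venturia inaequalis inoculation. Scab assessed 10 days after inoculation.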

[6] = tested on: Fusarium nivale (var. majus); experiment: whole plant or invertebrate; type: in vivo; details: Microdochium nivale, in Triticum aestivum, 120 h, read-out: % Wirkungsgrad (activity level)
Septoria tritici = experiment: Example R: in vivo test on Septoria tritici (leaf blotch in wheat/protective); details: Zymoseptoria tritici, 504 h, wheat, protective, 1000 ppm active substance, assessed 21 days after inoculation, read-out: % Wirkungsgrad (activity level)
Description: Solvent: 49 parts by weight N,N-dimethylacetamide Emulsifier: 1 part by weight alkylaryl polyglycol ethers For the preparation of a suitable active substance preparation, 1 part by weight of active substance is mixed with the stated quantities of solvent and emulsifier and the concentrate is diluted to the desired concentration with water. For the testing for protective activity, young plants are sprayed with the active substance preparation at the stated application dosage. After drying of the spray coating, the plants are sprayed with a spore suspension of Septoria tritici. […] 21 days after the inoculation, the assessment takes place.

Leptosphaeria nodorum = experiment: Example Q: in vivo test on Leptosphaeria nodorum (glume blotch in wheat/protective); details: Parastagonospora nodorum, 192 h, wheat, protective, assessment 8 days after inoculation, read-out: % Wirkungsgrad
Description: Solvent: 49 parts by weight N,N-dimethylacetamide Emulsifier: 1 part by weight alkylaryl polyglycol ethers For the preparation of a suitable active substance preparation, 1 part by weight of active substance is mixed with the stated quantities of solvent and emulsifier and the concentrate is diluted to the desired concentration with water. For the testing for protective activity, young plants are sprayed with the active substance preparation at the stated application dosage. After drying of the spray coating, the plants are sprayed with spores with a spore suspension of Leptosphaeria nodorum. […] 8 days after the inoculation, the assessment takes place.

Plasmopara viticola = experiment: Example N: in vivo test on Plasmopara viticola (downy mildew, vine/protective); details: 144 h, vine, protective, assessment 6 days after inoculation, read-out: % Wirkungsgrad
Description: Emulsifier: 1 part by weight alkylaryl polyglycol ethers For the preparation of a suitable active substance preparation, 1 part by weight of active substance is mixed with the stated quantities of solvent and emulsifier and the concentrate is diluted to the desired concentration with water. For the testing for protective activity, young plants are sprayed with the active substance preparation at the stated application dosage. […] The plants are then moistened and placed in an incubation cabin for 1 day. 6 days after the inoculation, the assessment takes place.

[7] = LogPA (logP of the stated pure compound or, in a mixture, of the main isomer, 1-substituted 3-aryl-1H-pyrazole)
[8] = Fusarium proliferatum growth, OD 620, 5 days, read-out: % Inhibition des Pilzwachstums bei 50 μM
[9] = Fusarium proliferatum, 5 days at 20° C., HPLC-MS/MS, read-out: % Inhibition der FB1 produktion bei 50 μM
[10] = 72 h, read-out: % Inhibition des Pilzwachstums bei 50 μM
[11] = 168 h, read-out: % Inhibition der DON/AcDON produktion bei 50 μM
[12] = 50 μM, 7 days at 20° C., read-out: Inhibition der Aflatoxin produktion bei 50 μM
[13] = read-out: % Inhibition des Pilzwachstums bei 50 μM

Row | SMILES | pest or weed control at 500 ppm [1] | pest or weed control at 500 ppm (Botrytis cinerea [2]) | chromatographic logP (physchem; [7]) | pest or weed control at 250 ppm (Rhizoctonia solani) | inhibition at 50 µM (Fusarium proliferatum; [8]) | inhibition at 50 µM (Fusarium proliferatum; [9]) | inhibition at 50 µM (Fusarium graminearum [3]; [10]) | inhibition at 50 µM (Fusarium graminearum [3]; [11]) | pest or weed control at 500 ppm (Sphaerotheca fuliginea) | inhibition at 50 µM (Aspergillus parasiticus; [12]) | inhibition at 50 µM (Aspergillus parasiticus; [13]) | pest or weed control at 500 ppm (Alternaria solani) | pest or weed control at 250 ppm (Botrytis cinerea [4]) | pest or weed control at 1000 ppm (Fusarium graminearum [5]) | pest or weed control at 100 ppm (Venturia inaequalis) | pest or weed control at 1000 ppm [6] | pest or weed control at 1000 ppm (Septoria tritici) | pest or weed control at 1000 ppm (Leptosphaeria nodorum) | chromatographic logP (physchem; LogPA) | pest or weed control at 100 ppm (Plasmopara viticola)
1 | Fc1cccc(F)c1-c1nn(C2CCC2)cc1-c1ccncc1 [Compound 8] | 92% | 94% | 1.56 | – | – | – | – | – | – | – | – | – | – | – | – | – | – | – | – | –
2 | CC(c1cccc(Cl)c1)n1cc(-c2ccncc2)c(-c2ccc(F)cc2)n1 (stereo not shown) [Compound 101] | – | – | 2.17 | 95% | – | – | – | – | – | – | – | – | – | – | – | – | – | – | – | –
3 | N#CCCn1cc(-c2ccncc2)c(-c2ccc(F)cc2)n1 [Compound 146] | – | – | 0.81 | – | 41% | 100% | 97% | 100% | 95% | 100% | 99% | 100% | – | – | – | – | – | – | – | –
4 | CCC(=O)Nc1cc(-c2cn(CC(C)C)nc2-c2ccc(F)cc2)ccn1 [Compound 155] | – | – | 2.51 | – | 97% | 100% | 97% | 100% | 95% | 100% | 100% | 100% | 99% | 88% | – | – | – | – | – | –
5 | CCC(C)n1cc(-c2ccnc(NC(=O)C(C)C)c2)c(-c2ccc(F)cc2)n1 (stereo not shown) [Compound 157] | – | – | 2.82 | – | – | – | 100% | 100% | 100% | – | – | 94% | 78% | 100% | 94% | 88% | 100% | – | – | –
6 | CCC(C)n1cc(-c2ccnc(NC(=O)CC3CC3)c2)c(-c2ccc(F)cc2)n1 (stereo not shown) [Compound 159] | – | – | 3 | – | – | – | 102% | 99% | 97% | – | – | 94% | 98% | 100% | 97% | 75% | 100% | – | – | –
7 | CCC(C)n1cc(-c2ccnc(NC(=O)C3CC3)c2)c(-c2ccc(F)cc2)n1 (stereo not shown) [Compound 167] | – | – | – | – | – | – | 100% | 99% | 100% | – | – | – | 100% | 100% | 89% | 100% | – | 92% | 2.56 | –
8 | CC(C)Cn1cc(-c2ccnc(NC(C)C)n2)c(-c2ccc(F)cc2)n1 [Compound 174] | – | – | – | 93% | – | – | – | – | 100% | – | – | 100% | 80% | – | 100% | – | 90% | 93% | 2.39 | 70%
9 | CC(c1cnc(Cl)s1)n1cc(-c2ccncc2)c(-c2ccc(F)cc2)n1 (stereo not shown) [Compound 176] | – | – | – | 97% | – | – | – | – | – | – | – | 100% | – | – | – | – | – | – | 1.82 | –
10 | CCn1cc(-c2ccnc(NC(=O)COC)c2)c(-c2ccc(F)cc2)n1 [Compound 203] | – | – | – | – | 99% | 100% | 100% | 100% | 95% | 100% | 100% | 93% | – | – | – | – | – | – | 2.2 | –
11 | COCCn1cc(-c2ccnc(NC(=O)Cc3ccccc3)c2)c(-c2ccc(F)cc2)n1 [Compound 212] | – | – | – | – | – | – | – | – | 96% | – | – | 95% | 98% | – | 85% | 75% | 71% | 71% | 2.6 | 83%
12 | O=C(Nc1cc(-c2cn(CC3CC3)nc2-c2ccc(F)cc2)ccn1)C1CC1 [Compound 224] | – | – | – | – | 99% | 100% | 100% | 92% | 99% | – | – | 70% | 99% | 100% | 71% | 100% | 100% | – | 2.29 | –
13 | CC(C)CC(=O)Nc1cc(-c2cn(CC(F)F)nc2-c2ccc(F)cc2)ccn1 [Compound 238] | – | – | – | – | – | – | – | – | 100% | – | – | 94% | 93% | 92% | 98% | 75% | – | – | 2.63 | 88%
14 | O=C(Nc1cc(-c2cn(CC(F)F)nc2-c2ccc(F)cc2)ccn1)C1CCC1 [Compound 240] | – | – | – | – | – | – | – | – | 96% | – | – | 88% | 99% | – | 96% | 75% | 75% | – | 2.42 | 90%
